Assays:
Type in all cases: functional
HeLa [1] = experiment: Induction of cell cycle arrest in human HeLa cells assessed as 2N cells at 12.3 uM incubated for 12 hrs by RNAse A/PI staining based flow cytometric analysis (reference value: 29.9%)
HeLa [2] = experiment: Induction of cell cycle arrest in human HeLa cells assessed as 4N cells at 12.3 uM incubated for 24 hrs by RNAse A/PI staining based flow cytometric analysis (reference value: 5.37%)
HeLa [3] = experiment: Induction of apoptosis in human HeLa cells assessed as late apoptotic cells at 26.1 uM incubated for 48 hrs by annexinV-FITC/propidium iodide staining based flow cytometry analysis (reference value: 0.1%)
HeLa [4] = experiment: Induction of cell cycle arrest in human HeLa cells assessed as 2N cells at 12.3 uM incubated for 24 hrs by RNAse A/PI staining based flow cytometric analysis (reference value: 29.9%)
HeLa [5] = experiment: Induction of cell cycle arrest in human HeLa cells assessed as <2N cells at 24.6 uM incubated for 48 hrs by RNAse A/PI staining based flow cytometric analysis (reference value: 41.6%)
HeLa [6] = experiment: Induction of apoptosis in human HeLa cells assessed as viable cells at 19.6 uM incubated for 48 hrs by annexinV-FITC/propidium iodide staining based flow cytometry analysis (reference value: 99.8%); conditions: read-out: Activity
HeLa [7] = experiment: Induction of cell cycle arrest in human HeLa cells assessed as accumulation at G2/M phase at 6.2 uM by RNAse A/PI staining based flow cytometric analysis relative to control
HeLa [8] = experiment: Induction of apoptosis in human HeLa cells assessed as viable cells at 26.1 uM incubated for 48 hrs by annexinV-FITC/propidium iodide staining based flow cytometry analysis (reference value: 99.8%); conditions: read-out: Activity
HeLa [9] = experiment: Induction of cell cycle arrest in human HeLa cells assessed as <2N cells at 12.3 uM incubated for 24 hrs by RNAse A/PI staining based flow cytometric analysis (reference value: 41.6%)
HeLa [10] = experiment: Induction of cell cycle arrest in human HeLa cells assessed as S phase cells at 24.6 uM incubated for 48 hrs by RNAse A/PI staining based flow cytometric analysis (reference value: 20.5%)
HeLa [11] = experiment: Induction of mitochondrial membrane potential loss in human HeLa cells assessed as decrease in fluorescence intensity […] at 6.2 uM by Rhodamine 123 staining based flow cytometric analysis (reference value: 58.0%); set-up: scale not given: the % may be the effect or the level left
HeLa [12] = experiment: Induction of cell cycle arrest in human HeLa cells assessed as 4N cells at 12.3 uM incubated for 12 hrs by RNAse A/PI staining based flow cytometric analysis (reference value: 5.37%)
HeLa [13] = experiment: Induction of apoptosis in human HeLa cells assessed as early apoptotic cells at 26.1 uM incubated for 48 hrs by annexinV-FITC/propidium iodide staining based flow cytometry analysis (reference value: 0.1%)
HeLa [14] = experiment: Induction of cell cycle arrest in human HeLa cells assessed as S phase cells at 12.3 uM incubated for 24 hrs by RNAse A/PI staining based flow cytometric analysis (reference value: 20.5%)
HeLa [15] = experiment: Induction of cell cycle arrest in human HeLa cells assessed as >4N cells at 12.3 uM incubated for 24 hrs by RNAse A/PI staining based flow cytometric analysis (reference value: 2.61%)
HeLa [16] = experiment: Induction of cell cycle arrest in human HeLa cells assessed as accumulation at G2/M phase at 24.6 uM by RNAse A/PI staining based flow cytometric analysis relative to control
HeLa [17] = experiment: Induction of apoptosis in human HeLa cells assessed as necrotic cells at 13.2 uM incubated for 48 hrs by annexinV-FITC/propidium iodide staining based flow cytometry analysis (reference value: 0.0%)
HeLa [18] = experiment: Induction of cell cycle arrest in human HeLa cells assessed as accumulation at G2/M phase at 12.3 uM by RNAse A/PI staining based flow cytometric analysis relative to control
HeLa [19] = experiment: Induction of mitochondrial membrane potential loss in human HeLa cells assessed as decrease in fluorescence intensity […] at 24.6 uM by Rhodamine 123 staining based flow cytometric analysis (reference value: 58.0%); set-up: scale not given: the % may be the effect or the level left
HeLa [20] = experiment: Induction of apoptosis in human HeLa cells assessed as late apoptotic cells at 13.2 uM incubated for 48 hrs by annexinV-FITC/propidium iodide staining based flow cytometry analysis (reference value: 0.1%)
HeLa [21] = experiment: Induction of cell cycle arrest in human HeLa cells assessed as <2N cells at 12.3 uM incubated for 12 hrs by RNAse A/PI staining based flow cytometric analysis (reference value: 41.6%)
HeLa [22] = experiment: Induction of apoptosis in human HeLa cells assessed as early apoptotic cells at 19.6 uM incubated for 48 hrs by annexinV-FITC/propidium iodide staining based flow cytometry analysis (reference value: 0.1%)
HeLa [23] = experiment: Induction of cell cycle arrest in human HeLa cells assessed as >4N cells at 6.2 uM incubated for 48 hrs by RNAse A/PI staining based flow cytometric analysis (reference value: 2.61%)
HeLa [24] = experiment: Induction of cell cycle arrest in human HeLa cells assessed as 4N cells at 6.2 uM incubated for 48 hrs by RNAse A/PI staining based flow cytometric analysis (reference value: 5.37%)
HeLa [25] = experiment: Induction of cell cycle arrest in human HeLa cells assessed as 4N cells at 12.3 uM incubated for 48 hrs by RNAse A/PI staining based flow cytometric analysis (reference value: 5.37%)
HeLa [26] = experiment: Induction of cell cycle arrest in human HeLa cells assessed as S phase cells at 6.2 uM incubated for 48 hrs by RNAse A/PI staining based flow cytometric analysis (reference value: 20.5%)
HeLa [27] = experiment: Induction of cell cycle arrest in human HeLa cells assessed as 2N cells at 12.3 uM incubated for 48 hrs by RNAse A/PI staining based flow cytometric analysis (reference value: 29.9%)
HeLa [28] = experiment: Induction of mitochondrial membrane potential loss in human HeLa cells assessed as decrease in fluorescence intensity […] at 12.3 uM by Rhodamine 123 staining based flow cytometric analysis (reference value: 58.0%); set-up: scale not given: the % may be the effect or the level left
HeLa [29] = experiment: Induction of cell cycle arrest in human HeLa cells assessed as S phase cells at 12.3 uM incubated for 12 hrs by RNAse A/PI staining based flow cytometric analysis (reference value: 20.5%)
HeLa [30] = experiment: Induction of cell cycle arrest in human HeLa cells assessed as S phase cells at 12.3 uM incubated for 48 hrs by RNAse A/PI staining based flow cytometric analysis (reference value: 20.5%)
HeLa [31] = experiment: Induction of cell cycle arrest in human HeLa cells assessed as 2N cells at 24.6 uM incubated for 48 hrs by RNAse A/PI staining based flow cytometric analysis (reference value: 29.9%)
HeLa [32] = experiment: Induction of apoptosis in human HeLa cells assessed as early apoptotic cells at 13.2 uM incubated for 48 hrs by annexinV-FITC/propidium iodide staining based flow cytometry analysis (reference value: 0.1%)

CC[C@H](C)[C@@H]1NC(=O)[C@H](CC(C)C)NC(=O)[C@@H]2CSCN2C(=O)[C@@H]2CSCN2C(=O)CN2C(=O)c3ccccc3[C@@]2(O)CN(Cc2ccccc2)C1=O
Activity (HeLa [1]): 28.8% | Activity (HeLa [2]): 25.1% | Activity (HeLa [3]): 6.4% | Activity (HeLa [4]): 20.6% | Activity (HeLa [5]): 14.4% | viability at 19.6 µM (HeLa [6]): 68.6% | Activity (HeLa [7]): 17% | viability at 26.1 µM (HeLa [8]): 58% | Activity (HeLa [9]): 33% | Activity (HeLa [10]): 5.72% | Activity (HeLa [11]): 52.6% | Activity (HeLa [12]): 16.8% | Activity (HeLa [13]): 34.6% | Activity (HeLa [14]): 10.2% | Activity (HeLa [15]): 11% | Activity (HeLa [16]): 47.5% | Activity (HeLa [17]): 2.6% | Activity (HeLa [18]): 35.7% | Activity (HeLa [19]): 19.4% | Activity (HeLa [20]): 7.3% | Activity (HeLa [21]): 33.1% | Activity (HeLa [22]): 23.3% | Activity (HeLa [23]): 9.53% | Activity (HeLa [24]): 17% | Activity (HeLa [25]): 35.7% | Activity (HeLa [26]): 11.1% | Activity (HeLa [27]): 28.1% | Activity (HeLa [28]): 32.3% | Activity (HeLa [29]): 11.5% | Activity (HeLa [30]): 21.3% | Activity (HeLa [31]): 28.8% | Activity (HeLa [32]): 5.6%
